For this experiment, the system named is trigeminal neurons that innervate the dural vasculature. The experiment in a line: in vivo electrophysiological recordings from single unit dural-responsive trigeminal neurons (preclinical model of migraine). The settings on record: rat; for normal cutaneous facial noxious and innocuous somatosensory responses: same neurons, extracranial somatosensory processing; for ongoing neuronal firing of central trigeminal neurons / response to pain-producing stimulation of the dura mater of central trigeminal neurons: intravenous administration, P<0.05 vs. baseline; for ongoing neuronal firing of central trigeminal neurons: FIGS. 1A & 1E; for response to pain-producing stimulation of the dura mater of central trigeminal neurons: FIGS. 1B & 1F. From the text: FIGS. 1A-1H depict a preclinical model of migraine manipulates the pain responsive sensory neurons that innervate the dura mater and its associated blood vessels. The cell bodies of these sensory neurons reside in the trigeminal ganglia. Measuring dural-responsive trigeminal neuronal responses in animals has proven to be extremely predictive of therapeutic efficacy for abortive migraine treatments, such as triptans, and it also translates to migraine preventives. Here we show in vivo electrophysiological recordings in a rat from single unit trigeminal neurons that innervate the dural vasculature. […] Intravenous administration of the migraine abortive, naratriptan (FIGS. 1A-1D) and the migraine preventive, amitriptyline (FIGS. 1E-1H), inhibited ongoing neuronal firing (FIGS. 1A & 1E) and the response to pain-producing stimulation of the dura mater (FIGS. 1B & 1F) of central trigeminal neurons. […] In the same neurons, naratriptan and MRS5980 had no effect on normal cutaneous facial noxious and innocuous somatosensory responses. Amitriptyline, however did affect this normal somatosensory processing. * P<0.05 vs. baseline.

For `CNC(=O)[C@@]12C[C@@H]1[C@@H](n1cnc3c(NC)nc(C#Cc4ccc(Cl)s4)nc31)[C@H](O)[C@@H]2O` [MRS5980], the “normal cutaneous facial noxious and innocuous somatosensory responses” value is “no effect”. Also, the “inhibiting neuronal responses (compared with naratriptan and amitriptyline)” value (dural-responsive trigeminal neurons) was “equally efficacious”.
For `CN(C)CCC=C1c2ccccc2CCc2ccccc21` [amitriptyline], the “ongoing neuronal firing of central trigeminal neurons” value is recorded as “inhibited”; the “response to pain-producing stimulation of the dura mater of central trigeminal neurons” value is on record as “inhibited”; the “normal cutaneous facial noxious and innocuous somatosensory responses” value is reported as “did affect”.
With `CNS(=O)(=O)CCc1ccc2[nH]cc(C3CCN(C)CC3)c2c1` [naratriptan], the “ongoing neuronal firing of central trigeminal neurons” value is recorded as “inhibited”; the “response to pain-producing stimulation of the dura mater of central trigeminal neurons” value was “inhibited”; the “normal cutaneous facial noxious and innocuous somatosensory responses” value is “no effect”.

For the origin of these results see patent US12397010B2, “Treatment of chronic headaches” (Saint Louis University, priority 2019, dated 2025).
